The text below walks through data of ChEMBL document CHEMBL1141683, “Substituted aryl pyrimidines as potent and soluble TRPV1 antagonists” (Bioorg Med Chem Lett, 2008).

Data set [1] is filed under the species Rattus norvegicus. The note with it: in vivo, po, 5 mg/kg.
Data set [2] can be described thus: in vivo. The conditions noted are these: Sprague-Dawley, rat, po, 5 mg/kg.
The nature of data set [3]: physchem. The note with it: phosphate buffered saline, pH 7.
The species named for data set [4] is Rattus norvegicus. The conditions noted are these: in vivo, po, 5 mg/kg. The source holds these as a separate data set.
Data set [5] can be described thus: physchem. The conditions noted are these: 0.01N HCl.
The nature of data set [6]: physchem. The conditions noted are these: simulated intestinal fluid.
Data set [7] in a line: in vivo. The conditions noted are these: Sprague-Dawley, rat, iv, 1 mg/kg.

Values after ≈ are worked out from the molar mass of the structure shown.

On to `CC(=O)Nc1nc2c(Oc3cc(-c4ccc(C(F)(F)F)cc4)ncn3)cccc2s1` [AMG-517], for which, in data set [1], the Vdss is 1.6 L/kg. Besides, the half-life (as a rule, the time in which the quantity being followed falls by half) in data set [2] is 6.3 h. Also, the solubility in data set [3] and in data set [5] was < 1 µg/mL each time. For the same compound, the AUC (usually the area under the concentration-time curve, a measure of exposure) in data set [4] worked out at 5400 ng·h/mL.

Take `CC(=O)Nc1nc2c(Oc3cc(-c4ccc(C(F)(F)F)cc4NC(=O)[C@@H]4CCCN4CC(C)C)ncn3)cccc2s1`: the values for the solubility in data set [3], in data set [6] and in data set [5] were 6 µg/mL (≈ 10 µM), 39 µg/mL (≈ 65.1 µM) and > 200 µg/mL, respectively. Moreover, in data set [7], the clearance (commonly the rate of elimination divided by the concentration) is > 66.7 mL/min/kg.

Take `CC(=O)Nc1nc2c(Oc3cc(-c4ccc(C(F)(F)F)cc4NC(=O)CCN(C)C)ncn3)cccc2s1`: the solubility – broadly, the dissolved amount per volume that the medium holds – was 3.9 µg/mL (≈ 7.16 µM) in data set [3], 30 µg/mL (≈ 55.1 µM) in data set [6] and 81 µg/mL (≈ 149 µM) in data set [5].

With `CC(=O)Nc1nc2c(Oc3cc(-c4ccc(C(F)(F)F)cc4NC(=O)[C@@H]4CCC(C)N4)ncn3)cccc2s1` (stereo not given in full), the solubility in data set [3] was 7.4 µg/mL (≈ 13.3 µM); in data set [6], 59 µg/mL (≈ 106 µM); in data set [5], 120 µg/mL (≈ 216 µM). In data set [7], this compound had a clearance of 10.3 mL/min/kg.

Turning to `CC(=O)Nc1nc2c(Oc3cc(-c4ccc(C(F)(F)F)cc4NC(=O)[C@H]4CCCN4CC(C)C)ncn3)cccc2s1`, the results for the solubility in data set [3], in data set [6] and in data set [5] were 1 µg/mL (≈ 1.67 µM), 39 µg/mL (≈ 65.1 µM) and > 200 µg/mL, respectively. The clearance in data set [7] is > 66.7 mL/min/kg.
